“Also recorded” adds a separate entry of the source. Non-standard residues stand in square brackets, D forms with d. Residues, ends and D or L forms follow the SMILES beside them. *: point of attachment. X1 = O=C(O)CCCCCCCCCCCCCCCCCCC(=O)N[C@@H](CCC(=O)NCCOCCOCC(=O)NCCOCCOCC(=O)N[C@@H](CCCCNC(=O)C*)C(=O)NCC(=O)O)C(=O)O; Aib = CC(C)(N)C(=O)O
What was measured:
DIO mice [1] = test: Plasma cholesterol and triglyceride in DIO mice; format: in vivo
Experimental: For termination blood samples, during anesthesia with isoflurane, the abdominal cavity was opened, and cardiac blood was drawn with a syringe into a Microvette/Vacuette of appropriate dimensions with anticoagulant and mixed by inversion 5 times. Blood was placed at 4° C. until centrifuged at 3000 g for 10 minutes. The plasma supernatants were transferred to new tubes and immediately frozen on dry ice. The samples were stored at −70° C.
Alanine transaminase (ALT), Aspartate transaminase (AST), Triglycerides (TG) and Total Cholesterol (TC): Blood samples were collected in heparinized tubes and plasma was separated and stored at −70° C. until analysis. Samples were measured using commercial kits (Roche Diagnostics), on the cobas c 501 autoanalyzer.
(§1) Sixty C57BL/6JRj male mice were fed a high fat diet (60% HFD, D12492—Ssniff) for 20 weeks before treatment start. […] Body weight and food intake (24 h) were measured daily. In week 3, an OGTT study was performed. Baseline and preterminal fasting blood glucose and plasma insulin were assessed. Preterminal plasma TC and TG were assessed. Terminal endpoints included liver and heart weight, liver TC, TG, […] and lipid content (HE staining).

GLP1 = GLP1 (Homo sapiens, UniProt P43220); test: GLP-1 activity in vitro of PEGylated and acylated OXM peptide analogs (Table 12); format: cell-based
GLP1, sequence (P43220 24-463): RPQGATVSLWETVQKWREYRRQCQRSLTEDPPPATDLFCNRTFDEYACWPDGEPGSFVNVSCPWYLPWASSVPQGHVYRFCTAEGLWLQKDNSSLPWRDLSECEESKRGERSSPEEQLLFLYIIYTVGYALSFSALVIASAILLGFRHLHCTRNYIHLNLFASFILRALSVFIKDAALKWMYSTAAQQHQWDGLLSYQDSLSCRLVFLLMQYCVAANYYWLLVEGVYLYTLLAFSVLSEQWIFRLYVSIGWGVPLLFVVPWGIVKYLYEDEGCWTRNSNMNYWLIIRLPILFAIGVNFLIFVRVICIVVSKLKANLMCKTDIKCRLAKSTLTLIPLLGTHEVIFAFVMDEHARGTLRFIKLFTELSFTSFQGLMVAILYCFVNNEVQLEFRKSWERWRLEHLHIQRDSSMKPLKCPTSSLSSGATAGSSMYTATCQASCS
Experimental: (§4) The potential benefits of novel acylated OXM products relative to the PEGylated OXM peptide were evaluated for GLP-1 and Glucagon activity in vitro, molecular weight, dosing, and efficacy in a DIO Mouse model.
(§5) The potency of the acylated OXM peptides was compared with the native OXM peptide alone and Pegylated OXM peptide to evaluate the impact of acylation on GLP-1 and Glucagon activities.

DIO mice [2] = test: Liver H&E staining for lipid droplets / liver lipid in DIO mice; format: in vivo
Experimental: In summary, glass slides with paraffin embedded sections were deparaffinated in xylene and rehydrated in series of graded ethanol.
Slides treated with histochemical and immunohistochemical stains were scanned using a 20× objective in a ScanScope AT slide scanner (Aperio).
Hematoxylin & Eosin (H&E) staining: Sections of FFPE tissue were incubated in Mayer's Hematoxylin (Dako), washed in tap water, stained in Eosin Y solution (Sigma-Aldrich), dehydrated in graded ethanol and cover slipped.
as §1

DIO mice [3] = test: Organ weights at termination in DIO mice; format: in vivo; settings: mid and high (5 and 15 nmol/kg)
Experimental: (§2) After termination, the liver was collected and weighed. Specific liver samples and biopsies were dissected and processed as specified in table “Termination samples” in the protocol and further described below.
as §1

DIO mice [4] = test: Weight loss in DIO mice with OPK-88604 and OPK-88006, 30 nmoles/kg; format: in vivo; settings: vs placebo, listed as OPK-88604
Experimental: (§3) The animals were individually weighed and analyzed for lipid and cholesterol levels prior to treatment and following completion of the study. The levels of fasting glucose and insulin levels were analyzed, and oral glucose tolerance test was performed and compared between groups The levels of plasma triglycerides and cholesterol were evaluated at the end of study and compared to base levels prior to treatment. Levels of total cholesterol, triglycerides and glycogen were also examined at the end of study. Histology of liver was used to analyze for lipid droplets in the liver. All tests were conducted using routine methods known in the art.
DIO mice with weights of around 55 grams were divided into three groups and treated with placebo, 30 nmoles/kg of OPK-88604, or 30 nmoles/kg of OPK-88006 for 4 weeks. The animals were weighed daily for the period of treatment.

DIO mice [5] = test: Oral glucose tolerance test in DIO mice; format: in vivo
Experimental: Animals were housed in a clean cage and fasted for 4 hours prior to oral or intraperitoneal glucose administration. At timepoint 0, mice receive an oral or intraperitoneal dose of 10 ml/kg of 200 mg/ml standard glucose solution (Fresenius Kabi, DK). At timepoint 0, mice received an oral or intraperitoneal dose of 4 ml/kg of standard 500 mg/ml glucose solution (Fresenius Kabi, DK). Blood samples (10 μl) were collected at various timepoints defined in the study protocol into heparinized glass capillary tubes and immediately suspended in glucose/lactate system solution buffer (EKF-diagnostics, Germany). Blood glucose (BG) was measured using a BIOSEN c-Line glucose meter (EKF-diagnostics, Germany) according to the manufacturer's instructions. After the last blood sample and/or drug dose, the animals were returned to the normal feeding schedule.
as §1

DIO mice [6] = test: Liver cholesterol, triglyceride and glycogen in DIO mice; format: in vivo
Experimental: as §2
The Liver TG TC piece (25±5 mg) was dissected from the right medial lobe, with no edges, on the opposite side of the sponsor piece. The samples were weighed individually, collected in tubes and frozen in liquid nitrogen. The samples were stored at −70° C.
Liver Triglycerides (TG) and Total cholesterol (TC): The liver content of triglyceride and total cholesterol was extracted from the liver samples into 5% NP-40, in a homogenization process followed by a heating step, where the samples were heated twice to 90° C. The samples were then centrifuged, and the supernatant was collected. The TG and TC levels were then determined by measurement on the cobas c 501 autoanalyzer with the relevant commercial kits from Roche Diagnostics.
as §1

DIO mice [7] = test: Body composition (fat and lean tissue mass) in DIO mice; format: in vivo
Experimental: The body composition of mice was assessed by an EchoMRI 3 in 1 Body composition analyzer (EchoMRI, US). Non-anaesthetized animals were placed in a plastic tube inside the MRI scanner for approximately 80 seconds. The body composition was reported as fat mass and fat free mass (lean mass).
as §1

GCGR = GCGR (Homo sapiens, UniProt P47871); test: Glucagon activity in vitro of PEGylated and acylated OXM peptide analogs (Table 12); format: cell-based
GCGR, sequence (P47871 26-477): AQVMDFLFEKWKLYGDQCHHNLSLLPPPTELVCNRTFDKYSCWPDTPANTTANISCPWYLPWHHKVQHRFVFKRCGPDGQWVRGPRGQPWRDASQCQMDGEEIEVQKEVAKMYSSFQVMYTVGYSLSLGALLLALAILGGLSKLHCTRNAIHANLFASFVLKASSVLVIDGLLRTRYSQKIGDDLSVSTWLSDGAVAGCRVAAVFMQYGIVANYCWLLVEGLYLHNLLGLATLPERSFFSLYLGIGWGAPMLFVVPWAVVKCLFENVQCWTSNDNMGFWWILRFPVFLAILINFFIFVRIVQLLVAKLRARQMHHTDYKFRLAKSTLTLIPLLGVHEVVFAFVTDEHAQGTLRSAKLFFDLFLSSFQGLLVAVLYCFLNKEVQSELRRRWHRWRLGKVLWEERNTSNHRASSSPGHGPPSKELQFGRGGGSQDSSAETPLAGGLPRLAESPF
Experimental: as §4, §5

DIO mice [8] = test: Body weight and food intake in DIO mice, 4 weeks daily treatment; format: in vivo
Experimental: as §3
The mice used in the studies were the gubra diet-induced obese (DIO) mouse model. This mouse model is fed a high fat diet that results in rapid weight gain. The DIO mice were based on male C57BI/6J mice and ready for experiment after 18 weeks on a 60% high fat diet.
To ensure accurate monitoring of weight changes over the course of the study, the animals were weighed daily with precision, prior to dosing at 7:00 AM. Body weight data was recorded in two formats: (1) Absolute measurements: The direct weight of the animal each day, and (2) Relative measurements: The weight expressed as a percentage relative to the body weight recorded on Day 1.
as §1

[9] = biological target: T1, glucagon-like peptide-1 (GLP1) receptor (Homo sapiens, UniProt P43220); test: GLP-1 activity EC50 of OXM analogs and GLP-1 therapeutics (Example 4, Table 9); format: cell-based; settings: GLP-1 activity; Table 9; read-out: EC50
T1 construct: expressed in transfected cells; host or cells: CHO-K1
T1 sequence (P43220 24-463): as the sequence (P43220 24-463) above
Source text: The potencies of the modified OXM analogs newly disclosed in the present application, the OXM Analog alone, and the PEGylated OXM analog were examined and compared by measuring the EC50 of both receptors, glucagon-like peptide-1 (GLP1) and glucagon (GCGR).

DIO mice [10] = test: Fasting blood glucose and plasma insulin in DIO mice; format: in vivo
Experimental: For in vivo blood samples, tail-vein, tongue or cheek blood was collected in a Microvette tube of appropriate dimensions with anticoagulant and mixed by inversion 5 times. Blood was placed at 4° C. until centrifuged at 3000 g for 10 minutes. The plasma supernatants were transferred to new tubes and immediately frozen on dry ice. The samples were stored at −70° C.
Insulin: Blood samples were collected in heparinized tubes and plasma was separated and stored at −70° C. until analysis. Insulin was measured using the commercial MSD platform (Meso Scale Diagnostics).
as §1

[11] = Solubility data of the binder complex; format: physicochemical
Source text: The structure and characteristics of the binder complex are detailed in Table 4 below.

[12] = 28 day treatment, vs semaglutide
[13] = mid and high (5 and 15 nmol/kg)
[14] = 15 nmol/kg daily, 28 days, OPK-88604 vs semaglutide
[15] = 28 day treatment, vs semaglutide, listed as OPK-88604

Compound: CC[C@H](C)[C@H](NC(=O)[C@H](CC(N)=O)NC(=O)[C@H](CC(N)=O)NC(=O)[C@H](CCCNC(=N)N)NC(=O)[C@H](CC(N)=O)NC(=O)[C@H](CCCNC(=N)N)NC(=O)CNC(=O)C(C)(C)NC(=O)[C@H](CC(N)=O)NC(=O)[C@H](CC(C)C)NC(=O)[C@H](CC(C)C)NC(=O)[C@H](Cc1c[nH]c2ccccc12)NC(=O)[C@H](CCC(N)=O)NC(=O)[C@@H](NC(=O)[C@H](Cc1ccccc1)NC(=O)[C@H](CCC(=O)O)NC(=O)[C@H](CCC(N)=O)NC(=O)[C@H](C)NC(=O)[C@H](CCCCN)NC(=O)[C@H](CCCCN)NC(=O)[C@H](CO)NC(=O)[C@H](CC(=O)O)NC(=O)[C@H](CC(C)C)NC(=O)[C@H](Cc1ccc(O)cc1)NC(=O)[C@H](CCCCN)NC(=O)[C@H](CO)NC(=O)[C@H](Cc1ccc(O)cc1)NC(=O)[C@H](CC(=O)O)NC(=O)[C@H](CO)NC(=O)[C@@H](NC(=O)[C@H](Cc1ccccc1)NC(=O)[C@@H](NC(=O)CNC(=O)[C@H](CCC(N)=O)NC(=O)C(C)(C)NC(=O)[C@@H](N)Cc1c[nH]cn1)[C@@H](C)O)[C@@H](C)O)C(C)C)C(=O)N[C@@H](C)C(=O)N[C@@H](CSCC(=O)NCCCC[C@H](NC(=O)COCCOCCNC(=O)COCCOCCNC(=O)CC[C@H](NC(=O)CCCCCCCCCCCCCCCCCCC(=O)O)C(=O)O)C(=O)NCC(=O)O)C(N)=O [Variant 1] (H-H[Aib]QGTFTSDYSKYLDSKKAQEFVQWLLN[Aib]GRNRNNIAC(X1)-NH2)
- total plasma cholesterol and triglycerides on day 28 (FIG. 33A, 33B) (DIO mice [1]; [12]): significantly more effective in reducing total plasma cholesterol and triglycerides compared to semaglutide
- plasma TC levels at termination (DIO mice [1]; [13]): reduced
- EC50 (GLP1): 0.0159 nM
- relative liver lipid / total liver lipid, P compared to Vehicle (FIG. 31A, 31B) (DIO mice [2]; 15 nmol/kg QD SC): < 0.001
- lipid droplets in liver, H&E staining (FIG. 30A-C) (DIO mice [2]; 28 day treatment, vs placebo and semaglutide, listed as OPK-88604): reduced the amount of lipid droplets in liver compared to placebo and animals treated with semaglutide; also recorded: Significantly reduced the amount of lipid droplets in liver compared to Semaglutide
- liver lipid content (total and relative) (DIO mice [2]; high (15 nmol/kg)): reduced
- heart weight (DIO mice [3]): reduced
- weight loss over 4 weeks (FIG. 41A, 41B) (DIO mice [4]): significant weight loss over 4 weeks compared to placebo
- blood glucose in response to an oral glucose bolus compared to vehicle controls (DIO mice [5]; all OPK-88604 groups (2, 5, 15 nmol/kg)): reduced blood glucose compared to vehicle controls
- glucose AUC in OGTT (FIG. 38B) (DIO mice [5]; treated for 3 weeks, vs semaglutide): statistically lower
- glucose levels in Oral Glucose Tolerance test (FIG. 38A) (DIO mice [5]; treated for 3 weeks, vs semaglutide, listed as OPK-88604): more effective in reducing glucose levels in an Oral Glucose Tolerance test compared to Semaglutide
- total liver cholesterol, P compared to Vehicle (FIG. 25B) (DIO mice [6]; 15 nmol/kg QD SC): < 0.05
- total liver cholesterol, triglycerides and glycogen, change from baseline on day 28 (FIG. 28A-C) (DIO mice [6]; [12]): significantly more effective in reducing total liver cholesterol, triglycerides, and glycogen
- total liver TC (DIO mice [6]; high (15 nmol/kg)): reduced
- liver TG (total and relative) (DIO mice [6]; [13]): reduced
- relative fat tissue mass / relative lean tissue mass at week 4, P compared to Vehicle (FIG. 22A, 22B) (DIO mice [7]; 15 nmol/kg QD SC): < 0.01
- relative lean body mass and fat mass change from baseline on day 28 (FIG. 24A, 24B) (DIO mice [7]; [14]): statistically similar
- EC50 (GCGR): 0.164 nM
- GCGR/GLP-1R (GCGR; ratio of EC50 activity): 10.3
- food consumption / cumulative food intake (FIG. 17B, 18B) (DIO mice [8]; [14]): Reduced food consumption significantly less than treatment with semaglutide
- weight loss from baseline (FIG. 17A, 18A) (DIO mice [8]; 15 nmol/kg daily, 28 days, OPK-88604 vs semaglutide vs placebo): similar
- relative body weight (day 28), P compared to Vehicle (FIG. 16B) (DIO mice [8]; Mid, 5 nmol/kg QD SC): < 0.05
- absolute and relative body weight and fat mass compared to the vehicle group (DIO mice [8]; high (15 nmol/kg), four weeks): reduced both absolute and relative body weight and fat mass
- relative body weight compared to the vehicle group (DIO mice [8]; mid (5 nmol/kg), four weeks): reduced relative body weight
- EC50 [9]: 0.09 nM
- fasting glucose change from baseline on day 28 (FIG. 35A) (DIO mice [10]; [15]): significant decrease in fasting glucose levels compared to semaglutide treatment; also recorded: significantly more effective in lowering fasting glucose levels
- fasting insulin change from baseline on day 28 (FIG. 35B) (DIO mice [10]; [15]): marked increase in insulin levels from baseline compared to semaglutide treatment; also recorded: increased insulin levels compared to Semaglutide
- blood glucose levels at study week 4 (DIO mice [10]; all doses (2, 5, 15 nmol/kg)): reduced blood glucose levels
- plasma insulin levels during the glucose tolerance test and preterminal (DIO mice [10]; high (15 nmol/kg)): decreased

Compound: Eicosanedioic-[…]Glu-(AEEA)2-Lys(Ac-Br)-Gly-OH [Binder Complex]
- Solubility data [11]: Water-based buffer at pHs 6.5-7.5
